# Columns and labels:
# Escherichia coli = test: Genotoxicity (SOSIP) on Escherichia coli PQ37 (SOS induction potential data, as a measure of genotoxicity); type: functional
# Salmonella typhimurium [1] = test: Mutagenicity in Salmonella Typhimurium TA100 was determined; type: functional, Salmonella enterica subsp. enterica serovar Typhimurium
# Salmonella typhimurium [2] = test: Mutagenicity in Salmonella Typhimurium TA98 was determined; type: functional, Salmonella enterica subsp. enterica serovar Typhimurium
# Salmonella typhimurium [3] = test: Mutagenicity inSalmonella Typhimurium TA100 was determined; type: functional, Salmonella enterica subsp. enterica serovar Typhimurium
# Salmonella typhimurium [4] = test: Mutagenicity inSalmonella Typhimurium TA98 was determined; type: functional, Salmonella enterica subsp. enterica serovar Typhimurium
Structure (SMILES),Log SOSIP (Escherichia coli),Log TA100 (Salmonella typhimurium [1]),Log TA98 (Salmonella typhimurium [2]),Log TA100 (Salmonella typhimurium [3]),Log TA98 (Salmonella typhimurium [4])
Cc1c([N+](=O)[O-])oc2ccc3c(c12)CCCC3,2.11,3.78,3.08,–,–
COc1ccc2oc(-c3ccc([N+](=O)[O-])o3)cc2c1,3.08,–,–,–,–
COc1ccc2oc([N+](=O)[O-])cc2c1,1.89,2.8,1.74,–,–
CC(=O)Cc1c([N+](=O)[O-])oc2ccc3ccccc3c12,3.43,–,–,–,–
CC(C)c1c([N+](=O)[O-])oc2ccc3ccccc3c12,3.74,–,–,–,–
COc1cc2ccccc2c2cc([N+](=O)[O-])oc12,4.04,4.66,4.2,–,–
Cc1c([N+](=O)[O-])oc2c3c(ccc12)CCCC3,3.28,4.38,2.46,–,–
CC(=O)c1ccc2c(ccc3oc([N+](=O)[O-])cc32)c1,3.72,–,–,–,–
COc1ccc2ccc3oc([N+](=O)[O-])cc3c2c1OC,4.2,–,–,–,–
COc1cc2oc([N+](=O)[O-])cc2c2ccccc12,3.86,3.59,3.28,–,–
O=[N+]([O-])c1cc2cc3c(cc2o1)CCCC3,2.25,3.11,2.63,–,–
O=[N+]([O-])c1oc2ccc3ccccc3c2c1CCO,3.78,–,3.59,–,–
Cc1ccc2c(ccc3oc([N+](=O)[O-])cc32)c1,3.95,–,–,–,–
O=[N+]([O-])c1cc2c(ccc3cc(O)ccc32)o1,3.58,–,–,–,–
O=[N+]([O-])c1cc2c(ccc3ccccc32)o1,3.96,–,–,4.31,3.33
O=[N+]([O-])c1cc2cc3ccccc3c(Br)c2o1,3.04,2.67,3.31,–,–
Cc1c([N+](=O)[O-])oc2ccc3cc(Br)ccc3c12,4.81,–,–,–,–
Cc1c([N+](=O)[O-])oc2c1ccc1ccccc12,4.34,–,–,–,–
COc1ccc2c(ccc3oc([N+](=O)[O-])cc32)c1Br,3.43,–,–,–,–
O=[N+]([O-])c1cc2cc3ccc4cccc5ccc(c2o1)c3c45,3.72,–,–,–,–
COc1ccc2ccc3oc([N+](=O)[O-])cc3c2c1Br,4.46,–,–,–,–
CCCCc1c([N+](=O)[O-])oc2ccc3ccccc3c12,4.28,–,–,–,–
O=[N+]([O-])c1cc2ccc3cc4ccccc4cc3c2o1,4.08,–,3.88,–,–

Structure (SMILES),Log SOSIP (Escherichia coli),Log TA100 (Salmonella typhimurium [1]),Log TA98 (Salmonella typhimurium [2]),Log TA100 (Salmonella typhimurium [3]),Log TA98 (Salmonella typhimurium [4])
CCOC(=O)COc1ccc2c(ccc3oc([N+](=O)[O-])cc32)c1,3.18,–,–,–,–
Cc1c([N+](=O)[O-])oc2cc3c(cc12)CCCC3,3.41,4.54,3.32,–,–
CC(=O)Oc1ccc2c(ccc3oc([N+](=O)[O-])cc32)c1,3,–,–,–,–
O=[N+]([O-])c1oc2ccc3ccccc3c2c1-c1ccccc1,4.43,–,–,–,–
Cc1c([N+](=O)[O-])oc2cc3ccccc3cc12,3.34,–,–,–,–
O=[N+]([O-])c1cc2ccccc2o1,1.53,1.54,1.3,–,–
COc1ccc2cc3c(ccc4oc([N+](=O)[O-])cc43)cc2c1,4.77,–,4.86,–,–
O=[N+]([O-])c1cc2c3c(ccc2o1)CCCC3,2.08,2.81,2.11,–,–
O=[N+]([O-])c1cc2c(ccc3cc4ccccc4cc32)o1,4.87,–,3.95,–,–
O=[N+]([O-])c1cc2c(ccc3cc(Br)ccc32)o1,4.64,4.16,3.61,–,–
CCc1c([N+](=O)[O-])oc2ccc3ccccc3c12,4.32,–,4.18,–,–
COc1ccc2c(ccc3oc([N+](=O)[O-])c(C)c32)c1,4.7,–,–,–,–
O=[N+]([O-])c1cc2cc(Cl)c3ccccc3c2o1,2.97,3.96,3.82,–,–
COc1cccc2cc3cc([N+](=O)[O-])oc3cc12,2.96,3.07,3.44,–,–
Cc1c([N+](=O)[O-])oc2ccc3ccccc3c12,4.91,6.71,4.91,–,–
COc1ccc2c(C)c([N+](=O)[O-])oc2c1,2.28,3.54,–,–,–
Cc1c([N+](=O)[O-])oc2ccccc12,1.2,3.7,–,–,–
O=[N+]([O-])c1cc2ccc3c(c2o1)CCCC3,1.93,2.95,2.59,–,–
COc1ccc2c(ccc3oc([N+](=O)[O-])cc32)c1,4.23,5.31,4.9,–,–
COC(=O)Cc1ccc2c(ccc3oc([N+](=O)[O-])cc32)c1,3.18,–,–,–,–
COc1ccc2ccc3oc([N+](=O)[O-])cc3c2c1,4.25,5.58,4.75,–,–
O=[N+]([O-])c1cc2c(cc3ccc4cccc5ccc2c3c45)o1,5,–,–,–,–
COc1cc2cc([N+](=O)[O-])oc2c2ccccc12,3.45,4.26,3.25,–,–

# From ChEMBL document CHEMBL1126635, “Mechanistic interpretation of the genotoxicity of nitrofurans (antibacterial agents) using quantitative structure-activity relationships and comparative molecular field analysis” (J Med Chem, 1993)
